MIC data for two compounds are collected here from patent US20230174584A1, “Antibiotic Compounds” (priority 2019, published 2023).

Test in all cases: MIC assay
What all share (format): cell-based, Enterococcus faecium

One experiment deals with E. faecium E0013. Conditions: Enterococcus faecium, E0013. In outline:
(§1)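 MICs (μg/mL) were read after 24 h incubation at 37 °C and taken as the median of at least three replicates. Compounds were serially diluted twofold in TSB containing 0.002% polysorbate 80 and inoculated with an equal volume of bacteria at 10^6 CFU/mL.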

For the next experiment, the system named is E. faecium E0072. Conditions: Enterococcus faecium, E0072. In outline:
as §1

For the next experiment, the system named is E. faecium E0333. Conditions: Enterococcus faecium, E0333. In outline:
as §1

The subject of the next experiment is E. faecium E0506. To be noted: Enterococcus faecium, E0506. The method, boiled down:
as §1

The next experiment relates to E. faecium E1130. To be noted: Enterococcus faecium, E1130. The method, boiled down:
as §1

The test system of the next experiment is E. faecium E1679. Conditions: Enterococcus faecium, E1679. In outline: as §1
Another experiment deals with E. faecium E1763. To be noted: Enterococcus faecium, E1763. In outline:
as §1

In another experiment the test system is E. faecium E2297. Conditions: Enterococcus faecium, E2297. In outline: as §1
In another experiment the test system is E. faecium E2365. Conditions: Enterococcus faecium, E2365. The method, boiled down:
as §1

For another experiment, the system named is E. faecium E6016. To be noted: Enterococcus faecium, E6016. In outline: as §1
A further experiment relates to E. faecium E7319. To be noted: Enterococcus faecium, E7319. In outline:
as §1

For a further experiment, the system named is E. faecium E7329. Conditions: Enterococcus faecium, E7329. The method, boiled down: as §1
Another experiment has as its system E. faecium E7401. Conditions: Enterococcus faecium, E7401. The method, boiled down:
as §1

In a further experiment the test system is E. faecium E7403. Conditions: Enterococcus faecium, E7403. In outline: as §1
For another experiment, the system named is E. faecium E7413. Conditions: Enterococcus faecium, E7413. In outline: as §1
A further experiment concerns E. faecium E7424. To be noted: Enterococcus faecium, E7424. In outline: as §1
The next experiment has as its system E. faecium E7464. Conditions: Enterococcus faecium, E7464. In outline: as §1
In a further experiment the test system is E. faecium E8218. Conditions: Enterococcus faecium, E8218. In outline:
as §1

Another experiment relates to E. faecium E8235. To be noted: Enterococcus faecium, E8235. The method, boiled down:
as §1

The next experiment has as its system E. faecium E980. To be noted: Enterococcus faecium, E980. In outline:
as §1

In a further experiment the test system is E. faecium EO321. To be noted: Enterococcus faecium, EO321. In outline: as §1

Converted amounts (≈) assume the structure as drawn.

As to `CCCCCCCCCCNCCN[C@@]1(C)C[C@H](O[C@H]2[C@H](Oc3c4cc5cc3Oc3ccc(cc3Cl)[C@@H](O)[C@@H](NC(=O)[C@@H](CC(C)C)NC)C(=O)N[C@@H](CC(N)=O)C(=O)N[C@H]5C(=O)N[C@H]3C(=O)N[C@H](C(=O)N[C@H](C(=O)O)c5cc(O)c(CNCP(=O)(O)O)c(O)c5-c5cc3ccc5O)[C@H](O)c3ccc(c(Cl)c3)O4)O[C@H](CO)[C@@H](O)[C@@H]2O)O[C@@H](C)[C@H]1O` [Telavancin, reference compound], the minimal inhibitory concentration (MIC) was 4 µg/mL (≈ 2.28 µM) against E. faecium E0013; 2 µg/mL (≈ 1.14 µM) with E. faecium E0072; 8 µg/mL (≈ 4.56 µM) with E. faecium E0333; 4 µg/mL (≈ 2.28 µM) in the experiment with E. faecium E0506; no more than 0.008 µg/mL in the experiment on E. faecium E1130; 16 µg/mL (≈ 9.11 µM) against E. faecium E1679. Besides, the minimum inhibitory concentration (MIC) against E. faecium E1763 is 1 µg/mL (≈ 0.57 µM); against E. faecium E2297, 4 µg/mL (≈ 2.28 µM); against E. faecium E2365, no more than 0.008 µg/mL; against E. faecium E6016, 4 µg/mL (≈ 2.28 µM); in the experiment on E. faecium E7319, 8 µg/mL (≈ 4.56 µM); against E. faecium E7329, no more than 0.008 µg/mL. Besides, the MIC against E. faecium E7401 was no more than 0.008 µg/mL; against E. faecium E7403 it was no more than 0.008 µg/mL; against E. faecium E7413, 8 µg/mL (≈ 4.56 µM); against E. faecium E7424 it was no more than 0.008 µg/mL; in the experiment on E. faecium E7464 it was no more than 0.008 µg/mL; in the experiment with E. faecium E8218, no more than 0.008 µg/mL. The MIC was no more than 0.008 µg/mL in the experiment on E. faecium E8235, 0.0156 µg/mL (≈ 0.0089 µM) with E. faecium E980 and 16 µg/mL (≈ 9.11 µM) against E. faecium EO321.

As to `CN[C@H](CC(C)C)C(=O)N[C@H]1C(=O)N[C@@H](CC(N)=O)C(=O)N[C@H]2C(=O)N[C@H]3C(=O)N[C@H](C(=O)N[C@H](C(=O)O)c4cc(O)cc(O)c4-c4cc3ccc4O)[C@H](O)c3ccc(c(Cl)c3)Oc3cc2cc(c3O[C@@H]2O[C@H](CO)[C@@H](O)[C@H](O)[C@H]2O[C@H]2C[C@](C)(N)[C@H](O)[C@H](C)O2)Oc2ccc(cc2Cl)[C@H]1O` [Vancomycin, reference compound], the minimal inhibitory concentration (MIC) with E. faecium E0013, with E. faecium E0072, against E. faecium E0333, in the experiment on E. faecium E0506, against E. faecium E1130 and against E. faecium E1679 was greater than 128 µg/mL throughout. The MIC was 128 µg/mL (≈ 88.3 µM) in the experiment with E. faecium E1763; greater than 128 µg/mL against E. faecium E2297; 16 µg/mL (≈ 11 µM) in the experiment with E. faecium E2365; greater than 128 µg/mL in the experiment on E. faecium E6016; greater than 128 µg/mL against E. faecium E7319; 1 µg/mL (≈ 0.69 µM) against E. faecium E7329. Further, the MIC in the experiment on E. faecium E7401 was 16 µg/mL (≈ 11 µM); in the experiment on E. faecium E7403, 16 µg/mL (≈ 11 µM); against E. faecium E7413, greater than 128 µg/mL; with E. faecium E7424 it was 4 µg/mL (≈ 2.76 µM); against E. faecium E7464, 16 µg/mL (≈ 11 µM); against E. faecium E8218, 8 µg/mL (≈ 5.52 µM). Also, the MIC against E. faecium E8235 was 16 µg/mL (≈ 11 µM); against E. faecium E980, 0.5 µg/mL (≈ 0.345 µM); in the experiment with E. faecium EO321, greater than 128 µg/mL.

The term MIC denotes the least concentration at which growth counts as inhibited.
